Earlier results, collected in patent US20060136023A1 (priority 2004, published 2006).

Columns and labels:
shivering threshold = conditions: in vivo
clots [1] = conditions: clots treated with plasminogen (2 mg) and SK (100 IU) in 15 ml PBS; clot temperature raised from 24° C. to 37° C.
Plasminogen [2] = biological target: T1, Plasminogen (Homo sapiens, UniProt P00747)
clots [3] = conditions: tPA 0.3, 1.0 and 3.0 μg/ml; incubated from 24° C. to 40° C.
Plasminogen [4] = biological target: T1, Plasminogen; conditions: clots treated with UK at 4° C.; heating to 28° C.

T1 sequence (P00747 20-810 limits assumed, species assumed): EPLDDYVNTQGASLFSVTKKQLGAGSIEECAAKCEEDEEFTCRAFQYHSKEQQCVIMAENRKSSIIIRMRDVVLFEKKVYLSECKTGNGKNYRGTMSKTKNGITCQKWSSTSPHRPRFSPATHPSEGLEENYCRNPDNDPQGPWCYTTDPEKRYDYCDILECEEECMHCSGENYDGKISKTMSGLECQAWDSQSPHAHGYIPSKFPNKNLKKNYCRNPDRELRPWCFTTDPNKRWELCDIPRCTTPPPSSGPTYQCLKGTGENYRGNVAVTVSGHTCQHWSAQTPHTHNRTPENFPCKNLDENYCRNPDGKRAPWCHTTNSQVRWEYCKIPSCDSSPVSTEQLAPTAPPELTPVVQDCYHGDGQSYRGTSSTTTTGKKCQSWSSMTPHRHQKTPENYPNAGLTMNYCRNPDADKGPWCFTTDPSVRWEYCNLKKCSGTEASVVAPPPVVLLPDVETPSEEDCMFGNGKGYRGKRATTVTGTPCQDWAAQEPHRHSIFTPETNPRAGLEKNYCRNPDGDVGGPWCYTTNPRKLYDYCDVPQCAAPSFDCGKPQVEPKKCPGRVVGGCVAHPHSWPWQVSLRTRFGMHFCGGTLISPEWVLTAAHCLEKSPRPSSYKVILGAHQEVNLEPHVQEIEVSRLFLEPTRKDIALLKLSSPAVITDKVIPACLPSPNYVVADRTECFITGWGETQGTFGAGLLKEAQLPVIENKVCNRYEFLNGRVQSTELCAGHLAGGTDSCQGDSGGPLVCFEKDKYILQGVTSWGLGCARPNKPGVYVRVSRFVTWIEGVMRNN

## CCC(=O)OC1(c2ccccc2)CCN(C)CC1C (racemic) [alpha prodine, Alpha prodine]
Opiate receptor
  affinity for the opiate receptor, one enantiomer versus the other: (+) isomer has much greater affinity

## CN1CCOC(c2ccccc2)c2ccccc2C1 (racemic) [nefopam]
Shivering threshold
  antishivering activity: prevent post-operative shivering

## CCOC(=O)C1(c2ccccc2)CCN(C)CC1 [Meperidine]
Shivering threshold
  decrease of shivering threshold relative to vasoconstriction threshold: twice as much
  effect on the gain and maximum intensity of shivering: does not have much effect

## CCC(=O)O[C@@]1(c2ccccc2)CCN(C)C[C@@H]1C [beta prodine]
Opiate receptor
  affinity for the opiate receptor, one enantiomer versus the other: (+) isomer has much greater affinity

## CN1CC[C@]23c4c5ccc(O)c4O[C@H]2[C@@H](O)C=C[C@H]3[C@H]1C5 [morphine]
Shivering threshold
  antishivering activity: less or no antishivering activity

## Oc1ccc2c3c1O[C@H]1[C@@H](O)CC[C@@]4(O)[C@@H](C2)N(CC2CCC2)CC[C@]314 [nalbuphine]
Shivering threshold
  antishivering activity: less or no antishivering activity

## CC(C)=CCN1CCC2(C)c3cc(O)ccc3CC1C2C (stereo not shown) [pentazocine]
Shivering threshold
  antishivering activity: less or no antishivering activity

## streptokinase [SK]
Clots [1]
  fibrinolytic activity: heating enhanced the fibrinolytic activity

## tissue plasminogen activator [tPA]
Plasminogen [2]; 2.5 μg/ml tPA, cooling from normal body temperature to a hypothermic temperature
  fibrinolytic activity: increased fibrinolytic activity
Plasminogen [2]; clots treated with 2.5 μg/ml tPA, incubated at 37, 25, 10, 0 and −8° C.
  Plasminogen activation: relatively high at low temperatures
Clots [3]
  amount of clot lysis: correlated with temperature at all concentrations

## urokinase [UK]
Plasminogen [4]
  conversion of plasminogen to plasmin (fibrinolytic activity): complete conversion of all plasminogen to plasmin
